Test results reported in patent US6355799B1, “Substituted benzene compounds, process for their preparation, and herbicidal and defoliant compositions containing them” (ISK Americas Incorporated, priority 1997, dated 2002).

Columns and labels:
Type in all cases: in vivo
[1] = system: redroot pigweed (Amaranthus retroflexus, AMARE); experiment: Pre-emerge test, greenhouse herbicide activity screening; details: rated 14 days after application, 0 = no damage, 100 = complete death
Outline: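 Plants grown in 10 cm pots of sandy loam mix received acetone-dissolved compounds through a moving flat-fan nozzle. Doses ranged from 15 to 1000 g ai/ha. Pre-emerge pots were seeded one day earlier, post-emerge pots 8–21 days earlier. Fourteen days on, each pot was graded 0–100 for damage.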

[2] = system: barnyardgrass (Echinochloa crus-galli, ECHCG); experiment: as above; details: rated 14 days after application, 0 = no damage, 100 = complete death
Outline: (§1)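 Visual ratings on a 0-100 scale (0 no damage, 100 all plants dead) were taken at 14 days after treatment. Rates of 15-1000 g ai/ha in acetone, 187 l/ha, were sprayed onto soil one day after planting (pre-emerge) or onto 2-3 leaf plants with 0.25% v/v surfactant (post-emerge).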

[3] = system: green foxtail (Setaria viridis, SETVI); experiment: as above; details: rated 14 days after application, 0 = no damage, 100 = complete death
Outline: as §1

[4] = system: ivyleaf morningglory (Ipomoea hederacea, IPOHE); experiment: as above; details: rated 14 days after application, 0 = no damage, 100 = complete death
Outline: as §1

[5] = system: johnsongrass (Sorghum halepense, SORHA); experiment: as above; details: rated 14 days after application, 0 = no damage, 100 = complete death
Outline: as §1

[6] = system: lambsquarters (Chenopodium album, CHEAL); experiment: as above; details: rated 14 days after application, 0 = no damage, 100 = complete death
Outline: as §1

[7] = system: large crabgrass (Digitaria sanguinalis, DIGSA); experiment: as above; details: rated 14 days after application, 0 = no damage, 100 = complete death
Outline: as §1

[8] = system: sicklepod (Cassia obtusifolia, CASOB); experiment: as above; details: rated 14 days after application, 0 = no damage, 100 = complete death
Outline: as §1

[9] = system: velvetleaf (Abutilon theophrasti, ABUTH); experiment: as above; details: rated 14 days after application, 0 = no damage, 100 = complete death
Outline: as §1

[10] = system: field corn (Zea mays L., var. Dekalb 535, CORN); experiment: Pre-emerge test, crop safety; details: rated 14 days after application, 0 = no damage, 100 = complete death
Outline: as §1

[11] = system: upland rice (Oryza sp., var. Tebonnet, RICE); experiment: Pre-emerge test, crop safety; details: rated 14 days after application, 0 = no damage, 100 = complete death
Outline: as §1

[12] = system: barnyardgrass (Echinochloa crus-galli, ECHCG); experiment: Post-emerge test, greenhouse herbicide activity screening; details: post-emerge, 14 days after application, rating scale 0-100
Outline: (§2)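 Compounds in acetone were track-sprayed at 15–1000 g ai/ha: pre-emergence onto soil sown the previous day, then top-watered to incorporate and later bottom-watered; post-emergence onto 2–3 leaf plants with 0.25% v/v surfactant, bottom-watered only. Ratings on a 0–100 phytotoxicity scale were taken at day 14.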

[13] = system: green foxtail (Setaria viridis, SETVI); experiment: as above; details: post-emerge, 14 days after application, rating scale 0-100
Outline: as §2

[14] = system: ivyleaf morningglory (Ipomoea hederacea, IPOHE); experiment: as above; details: post-emerge, 14 days after application, rating scale 0-100
Outline: as §2

[15] = system: johnsongrass (Sorghum halepense, SORHA); experiment: as above; details: post-emerge, 14 days after application, rating scale 0-100
Outline: as §2

[16] = system: lambsquarters (Chenopodium album, CHEAL); experiment: as above; details: post-emerge, 14 days after application, rating scale 0-100
Outline: as §2

[17] = system: large crabgrass (Digitaria sanguinalis, DIGSA); experiment: as above; details: post-emerge, 14 days after application, rating scale 0-100
Outline: as §2

[18] = system: redroot pigweed (Amaranthus retroflexus, AMARE); experiment: as above; details: post-emerge, 14 days after application, rating scale 0-100
Outline: as §2

[19] = system: sicklepod (Cassia obtusifolia, CASOB); experiment: as above; details: post-emerge, 14 days after application, rating scale 0-100
Outline: as §2

[20] = system: velvetleaf (Abutilon theophrasti, ABUTH); experiment: as above; details: post-emerge, 14 days after application, rating scale 0-100
Outline: as §2

[21] = system: field corn (Zea mays L., var. Dekalb 535, CORN); experiment: Post-emerge test, crop safety; details: post-emerge, 14 days after application, rating scale 0-100
Outline: as §1

[22] = system: upland rice (Oryza sp., var. Tebonnet, RICE); experiment: Post-emerge test, crop safety; details: post-emerge, 14 days after application, rating scale 0-100
Outline: as §1

With `Cn1c(C(F)(F)F)cc(=O)n(-c2c(F)cc(Cl)c(O)c2NC(=O)c2ncccn2)c1=O` [2-102] the “Pre-emerge Herbicidal Activity, phytotoxicity rating (0-100), AMARE” value (shortened to “Pre-emerge Herbicidal Activity … AMARE”) ([1]; 63 g ai/ha) was 30, the “Pre-emerge Herbicidal Activity … AMARE” value ([1]; 250 g ai/ha) was 0 and the “Pre-emerge Herbicidal Activity, phytotoxicity rating (0-100), ECHCG” value (“Pre-emerge Herbicidal Activity … ECHCG” below) ([2]; 63 g ai/ha) was 0. For the same molecule, the “Pre-emerge Herbicidal Activity … ECHCG” value ([2]; 250 g ai/ha) was 0, the “Pre-emerge Herbicidal Activity, phytotoxicity rating (0-100), SETVI” value (from here on “Pre-emerge Herbicidal Activity … SETVI”) ([3]; 63 g ai/ha) was 0 and the “Pre-emerge Herbicidal Activity … SETVI” value ([3]; 250 g ai/ha) was 0. The “Pre-emerge Herbicidal Activity, phytotoxicity rating (0-100), IPOHE” value (shortened to “Pre-emerge Herbicidal Activity … IPOHE”) ([4]; 63 g ai/ha) was 0, the “Pre-emerge Herbicidal Activity … IPOHE” value ([4]; 250 g ai/ha) was 0 and the “Pre-emerge Herbicidal Activity, phytotoxicity rating (0-100), SORHA” value (“Pre-emerge Herbicidal Activity … SORHA” below) ([5]; 63 g ai/ha) was 0. The “Pre-emerge Herbicidal Activity … SORHA” value ([5]; 250 g ai/ha) was 0, the “Pre-emerge Herbicidal Activity, phytotoxicity rating (0-100), CHEAL” value (from here on “Pre-emerge Herbicidal Activity … CHEAL”) ([6]; 63 g ai/ha) was 0 and the “Pre-emerge Herbicidal Activity … CHEAL” value ([6]; 250 g ai/ha) was 0. The “Pre-emerge Herbicidal Activity, phytotoxicity rating (0-100), DIGSA” value (shortened to “Pre-emerge Herbicidal Activity … DIGSA”) ([7]; 63 g ai/ha) was 0, the “Pre-emerge Herbicidal Activity … DIGSA” value ([7]; 250 g ai/ha) was 0 and the “Pre-emerge Herbicidal Activity, phytotoxicity rating (0-100), CASOB” value (“Pre-emerge Herbicidal Activity … CASOB” below) ([8]; 63 g ai/ha) was 0. The “Pre-emerge Herbicidal Activity … CASOB” value ([8]; 250 g ai/ha) was 0, the “Pre-emerge Herbicidal Activity, phytotoxicity rating (0-100), ABUTH” value (from here on “Pre-emerge Herbicidal Activity … ABUTH”) ([9]; 63 g ai/ha) was 0 and the “Pre-emerge Herbicidal Activity … ABUTH” value ([9]; 250 g ai/ha) was 0. The “Pre-emerge phytotoxicity rating (0-100), crop damage, CORN” value (shortened to “Pre-emerge phytotoxicity rating … CORN”) ([10]; 63 g ai/ha) was 0, the “Pre-emerge phytotoxicity rating … CORN” value ([10]; 250 g ai/ha) was 0 and the “Pre-emerge phytotoxicity rating (0-100), crop damage, RICE” value (shortened to “Pre-emerge phytotoxicity rating … RICE”) ([11]; 63 g ai/ha) was 0. For the same molecule, the “Pre-emerge phytotoxicity rating … RICE” value ([11]; 250 g ai/ha) was 0, the “phytotoxicity rating ECHCG” value ([12]; 63 g ai/ha) was 0 and the “phytotoxicity rating ECHCG” value ([12]; 250 g ai/ha) was 0. For the same molecule, the “phytotoxicity rating SETVI” value ([13]; 63 g ai/ha) was 0, the “phytotoxicity rating SETVI” value ([13]; 250 g ai/ha) was 0 and the “phytotoxicity rating IPOHE” value ([14]; 63 g ai/ha) was 0. The “phytotoxicity rating IPOHE” value ([14]; 250 g ai/ha) was 0, the “phytotoxicity rating SORHA” value ([15]; 63 g ai/ha) was 0 and the “phytotoxicity rating SORHA” value ([15]; 250 g ai/ha) was 0. The “phytotoxicity rating CHEAL” value ([16]; 63 g ai/ha) was 0, the “phytotoxicity rating CHEAL” value ([16]; 250 g ai/ha) was 0 and the “phytotoxicity rating DIGSA” value ([17]; 63 g ai/ha) was 0. The “phytotoxicity rating DIGSA” value ([17]; 250 g ai/ha) was 0, the “phytotoxicity rating AMARE” value ([18]; 63 g ai/ha) was 0 and the “phytotoxicity rating AMARE” value ([18]; 250 g ai/ha) was 40. For the same molecule, the “phytotoxicity rating CASOB” value ([19]; 63 g ai/ha) was 0, the “phytotoxicity rating CASOB” value ([19]; 250 g ai/ha) was 0 and the “phytotoxicity rating ABUTH” value ([20]; 63 g ai/ha) was 0. The “phytotoxicity rating ABUTH” value ([20]; 250 g ai/ha) was 30, the “phytotoxicity rating CORN” value ([21]; 63 g ai/ha) was 0 and the “phytotoxicity rating CORN” value ([21]; 250 g ai/ha) was 0. The “phytotoxicity rating RICE” value ([22]; 63 g ai/ha) was 0 and the “phytotoxicity rating RICE” value ([22]; 250 g ai/ha) was 0.

With `COc1c(Cl)cc(F)c(-n2c(=O)cc(C(F)(F)F)n(C)c2=O)c1NC(=O)COc1ccccc1` [2-119] the “Pre-emerge Herbicidal Activity … AMARE” value ([1]; 63 g ai/ha) was 100, the “Pre-emerge Herbicidal Activity … AMARE” value ([1]; 250 g ai/ha) was 100 and the “Pre-emerge Herbicidal Activity … ECHCG” value ([2]; 63 g ai/ha) was 70. For the same molecule, the “Pre-emerge Herbicidal Activity … ECHCG” value ([2]; 250 g ai/ha) was 95, the “Pre-emerge Herbicidal Activity … SETVI” value ([3]; 63 g ai/ha) was 100 and the “Pre-emerge Herbicidal Activity … SETVI” value ([3]; 250 g ai/ha) was 100. For the same molecule, the “Pre-emerge Herbicidal Activity … IPOHE” value ([4]; 63 g ai/ha) was 70, the “Pre-emerge Herbicidal Activity … IPOHE” value ([4]; 250 g ai/ha) was 100 and the “Pre-emerge Herbicidal Activity … SORHA” value ([5]; 63 g ai/ha) was 75. For the same molecule, the “Pre-emerge Herbicidal Activity … SORHA” value ([5]; 250 g ai/ha) was 100, the “Pre-emerge Herbicidal Activity … CHEAL” value ([6]; 63 g ai/ha) was 100 and the “Pre-emerge Herbicidal Activity … CHEAL” value ([6]; 250 g ai/ha) was 100. The “Pre-emerge Herbicidal Activity … DIGSA” value ([7]; 63 g ai/ha) was 70, the “Pre-emerge Herbicidal Activity … DIGSA” value ([7]; 250 g ai/ha) was 100 and the “Pre-emerge Herbicidal Activity … CASOB” value ([8]; 63 g ai/ha) was 60. For the same molecule, the “Pre-emerge Herbicidal Activity … CASOB” value ([8]; 250 g ai/ha) was 90, the “Pre-emerge Herbicidal Activity … ABUTH” value ([9]; 63 g ai/ha) was 100 and the “Pre-emerge Herbicidal Activity … ABUTH” value ([9]; 250 g ai/ha) was 100. For the same molecule, the “Pre-emerge phytotoxicity rating … CORN” value ([10]; 63 g ai/ha) was 20, the “Pre-emerge phytotoxicity rating … CORN” value ([10]; 250 g ai/ha) was 90 and the “Pre-emerge phytotoxicity rating … RICE” value ([11]; 63 g ai/ha) was 70. For the same molecule, the “Pre-emerge phytotoxicity rating … RICE” value ([11]; 250 g ai/ha) was 100, the “phytotoxicity rating ECHCG” value ([12]; 63 g ai/ha) was 40 and the “phytotoxicity rating ECHCG” value ([12]; 250 g ai/ha) was 90. The “phytotoxicity rating SETVI” value ([13]; 63 g ai/ha) was 40, the “phytotoxicity rating SETVI” value ([13]; 250 g ai/ha) was 90 and the “phytotoxicity rating IPOHE” value ([14]; 63 g ai/ha) was 100. For the same molecule, the “phytotoxicity rating IPOHE” value ([14]; 250 g ai/ha) was 100, the “phytotoxicity rating SORHA” value ([15]; 63 g ai/ha) was 60 and the “phytotoxicity rating SORHA” value ([15]; 250 g ai/ha) was 90. The “phytotoxicity rating CHEAL” value ([16]; 63 g ai/ha) was 80, the “phytotoxicity rating CHEAL” value ([16]; 250 g ai/ha) was 100 and the “phytotoxicity rating DIGSA” value ([17]; 63 g ai/ha) was 30. For the same molecule, the “phytotoxicity rating DIGSA” value ([17]; 250 g ai/ha) was 80, the “phytotoxicity rating AMARE” value ([18]; 63 g ai/ha) was 90 and the “phytotoxicity rating AMARE” value ([18]; 250 g ai/ha) was 100. The “phytotoxicity rating CASOB” value ([19]; 63 g ai/ha) was 30, the “phytotoxicity rating CASOB” value ([19]; 250 g ai/ha) was 60 and the “phytotoxicity rating ABUTH” value ([20]; 63 g ai/ha) was 100. The “phytotoxicity rating ABUTH” value ([20]; 250 g ai/ha) was 100, the “phytotoxicity rating CORN” value ([21]; 63 g ai/ha) was 70 and the “phytotoxicity rating CORN” value ([21]; 250 g ai/ha) was 90. For the same molecule, the “phytotoxicity rating RICE” value ([22]; 63 g ai/ha) was 60 and the “phytotoxicity rating RICE” value ([22]; 250 g ai/ha) was 90.
